According to patent publication US20030133913A1, “Methods of maturing plasmacytoid dendritic cells using immune response modifier molecules” (3M Innovative Properties Company, priority 2001, published 2003):

System: plasmacytoid dendritic cells
Experiment: Enhanced survival of isolated pDCs, cell viability by flow cytometry
Assay type: cell-based, human
Details: 48 hours after treatment with IRM (3 μM) versus without IRM; FIG. 4
Method: Human pDCs were isolated from PBMC by immunomagnetic bead positive selection according to the manufacturer's instructions (Miltenyi Biotec, Inc., Auburn, Calif.). Briefly, PBMC were incubated with pDC-specific antibodies, BDCA-2 or BDCA-4, and the labeled cells were collected with a Miltenyi LS column. The positively selected cells were resuspended in X-Vivo 20 medium. Isolated pDCs were obtained as described in Example 2. The isolated pDCs were incubated in with and without IRM. Cell viability was measured in both cultures by flow cytometry after 24 hours and again after 48 hours. […] Pairwise comparisons of IRM-treated cells to the control group were performed using the Dunnett adjustment to preserve the overall 0.05 level of significance. If there were discrepancies between the 2 methods, the results from the arcsin transformed data were reported.

CCOCc1nc2c(N)nc3ccccc3c2n1CC(C)(C)O [IRM, 4-amino-2-ethoxymethyl-α,α-dimethyl-1H-imidazo[4,5-c]quinoline-1-ethanol]
pDC survival (percent viable): statistically significant higher rate of survival
